According to patent US7276531B2, “G-lactam derivatives as prostaglandin agonists” (Applied Research Systems ARS Holding N.V., priority 2003, dated 2007):

How the values were obtained:
[1] = test system: mature mouse ovulation induction model; assay: In vivo ovulation assay (mature mouse ovulation induction model)
Description: Ovulation induction activity of compounds of the invention was tested in a mature mouse ovulation induction model.
Mature 10-week-old CD-mice were used. Reagents were prepared as follows: PMSG (pregnant mare serum gonadotropin) (Calbiochem, cat #367222) and hCG (Serono) are diluted in PBS. PGE2 (Cayman, Ann Arbor Mich.) was dissolved in ethanol and diluted with 0.154 M […] Buffer (pH 8.0) to final concentration of ethanol of less than 3 percent. A compound of the invention (based on solubility) was pre-dissolved in ethanol, DMSO or other reagents. The compound of the invention was then diluted with saline or other diluents such as PBS or NP3S (5% N-methyl-pyrrolidinone/30% PEG400/25% PEG200/20% Propylene Glycol in saline). PMSG stimulates ovarian follicular development. After PMSG stimulation, the mature follicules can be stimulated to rupture and release oocytes by an ovulation trigger, such as hCG or a compound of the invention.
The following test protocol is employed for the test animals (typically 5 animals per test group). • Day 1: Inject 5 IU PMSG in 200 μl PBS (i.p. 15:00 PM) • Day 2: No administration • Day 3: Injection of ovulation trigger hCG (i.p.) or hCG replacement (PGE2 or compound of the invention, s.c., i.v. or oral route), 15:00 PM • Day 4: Eighteen hours after injections of the ovulation triggers, animals were sacrificed by CO2 asphyxiation and abdominal cavities were opened using fine scissors and forceps. Uterus, oviducts and ovaries were collected and placed in pre-labeled dishes containing phosphate buffered saline (PBS). The collected tissues were transferred to the laboratory and intact oviduct carefully dissected out from uterus and ovary under the dissection microscope. The dissected oviducts were placed on the glass microscopic slide and covered with another slide. Two slides were taped on two edges. The numbers of ovulated ova in the oviducts were counted using upright microscope with 4× objective and recorded. […]

[2] = test system: methacholine-induced bronchoconstriction; assay: In vivo inhibition of guinea pig broncho-constriction (methacholine-induced); conditions: Cavia porcellus, IT (intra-tracheal) route, read-out: calculated effective dose (ED50), bronchoconstriction
Excerpt: The activity of compounds of the invention in dilation of bronchiolar muscles, may be tested in different models. Guinea pig pulmonary-cholinergic in vivo model is generally used to test the materials for the treatments of asthma in human (Fleisch et al., 1985) Compounds of the invention can be tested in this methacholine-induced bronchomuscle constriction model as described below.
Groups of 3 Duncan Hartley derived male or female guinea pigs weighing 250±50 g are anesthetized with pentobarbital sodium (50 mg/kg i.p., plus an additional 15 mg/kg i.p. if required) and succinylcholine chloride (2 mg/animal i.p.) is subsequently administered to prevent spontaneous respiration. Body temperature is maintained at 37° to 38° C.
The trachea is cannulated and the guinea pig is ventilated with a Harvard rodent respirator in a closed system. Tracheal pressure is recorded through a side-arm of the cannula connected to a P23ID Statham transducer. […] Mean arterial pressure (BP) is monitored from a cannulated carotid artery, and heart rate (HR) is obtained from chest electrodes arranged for lead II. […]
Compounds of the invention are also tested via intra-tracheal (IT) route of administration. […] Tracheal pressure (ITP), blood pressure and heart rate are measured immediately as indicated in the material and methods sections. […]

LPS-induced TNFα release = assay: In vivo inhibition of LPS-induced TNFα release in mice; conditions: LPS 0.3 mg/kg i.p.
Description: The anti-inflammatory activity of compounds of the invention may be assessed after a LPS challenge using the following protocol:
Eight weeks old C3H/H mice (IFFA-CREDO, L'arbresle, France) receive an oral treatment with compounds of the invention 6 different doses (0.001, 0.01, 0.1, 1 or 3 and 10 mg/kg in 0.5% CMC/0.25% tween-20). Six mice are used by group. Fifteen minutes later, endotoxins (O111:B4 Sigma, 0.3 mg/kg) are intraperitoneally injected. Heparinized whole blood is collected by decapitation. TNFα level is determined in plasma by ELISA (R & D Systems, Abdingdon, UK). Control animals receive 0.5% CMC/0.25% tween-20 (10 ml/kg) as vehicle. Data obtained from experiments are expressed as the mean±SEM and analysed using one-way analysis of variance (ANOVA) followed by Dunnett's t-test.

[3] = test system: aspirin-induced gastric ulceration; assay: In vivo inhibition of aspirin-induced gastric ulceration; conditions: rats
Excerpt: The activity of compounds of the invention as protective agents against gastric ulceration can be assayed as follows and as described in Guth et al., 1979. […]
Four hours later, animals are sacrificed and gastric ulceration is scored for degree of hemorrhage and severity of ulcerative lesions as follows: 0=no hyperemia or bleeding, 1=hyperaemia, 2=slight spot bleeding, 3=hyperemia plus slight spot bleeding, 4=hyperemia plus spot bleeding within entire stomach. Reduction of concurrent control score values by 50 percent or more (≧50%) is considered significant.

CCCC/C(C)=C/C=C\[C@H]1CCC(=O)N1CCc1ccc(C(=O)O)cc1 [Example 3, 4-(2-{(2R)-2-[(1Z,3E)-4-methylocta-1,3-dienyl]-5-oxopyrrolidin-1-yl}ethyl)benzoic acid]
ED50 ([1]; Mus musculus, po, read-out: calculated ED50 (dose of drug which produces 50% of its effect), ovulation, p.o. administration route, mice): 1 mg/kg
number of ova released (average) ([1]; oral administration, 20 mg/kg, mature mice): 20
ED50 [2]: 0.2 mg/kg
% of Inhibition of TNF Release Mean ± SEM (LPS-induced TNFα release; oral dose 0.001 mg/kg): 41 ± 5%
% of Inhibition of TNF Release Mean ± SEM (LPS-induced TNFα release; oral dose 0.01 mg/kg): 43 ± 7%
% of Inhibition of TNF Release Mean ± SEM (LPS-induced TNFα release; oral dose 0.1 mg/kg): 63 ± 3%
% of Inhibition of TNF Release Mean ± SEM (LPS-induced TNFα release; oral dose 1 mg/kg): 68 ± 3%
% of Inhibition of TNF Release Mean ± SEM (LPS-induced TNFα release; oral dose 10 mg/kg): 83 ± 3%
percentage of protection (gastric ulceration) ([3]; 10 mg/kg administered orally): 65%
Ulceration scores ([3]; aspirin 150 mg/kg oral gavage): decreased in a dose-dependent manner
